In patent US20060213838A1, “Elution test method and apparatus” (SHIMADZU CORPORATION, priority 2005, published 2006):

What was measured:
[1] = elution test of the preparation by absorbance measurement method; type: physicochemical; conditions: preparation C containing impurity component B, six specimens
Excerpt: The following describes a method for determining the specific component A alone while eliminating the influence of the impurity component B that hinders determination from the test liquid into which the specific component A and the impurity component B are eluted from the preparation C
The wavelengths to be set are 234 nm (λ1) and 287 nm (λ2) as isosbestic point wavelengths in a system including the specific component A and its decomposed matter in the preparation C. Assuming that the absorbances of the specific component A as A234nm(t) and A287nm(t) and the absorbances of the impurity component B as B234nm(t) and B287nm(t), the absorbances of the synthesis spectrum C234nm(t) and C287nm(t) will be represented as follows. C234nm(t)=A234nm(t)+B234nm(t) (3) C287nm(t)=A287nm(t)+B287nm(t) (4) Considering the spectrum of the impurity component B, the ratio of absorbance of the wavelengths of 234 nm and 287 nm is constant and independent of time (or concentration). This obtains the expression (5). B234nm(t)/B287nm(t)=k (5)
k and k′ are constants. From the absorbance measurement values at two isosbestic point wavelengths of the elution test liquid, the concentration of the specific component A alone is obtained by solving the simultaneous equation of the expression (7) and (8). […]

[2] = change with time of residual concentration of specific component A in test liquid (HPLC); type: physicochemical; conditions: 50 mM phosphoric acid buffer solution pH6.8, 37° C., initial 0.1 mg/mL
Method: The specific component A is an unstable pharmaceutical in an elution test under neutral condition and is sodium rabepranazole. The test liquid used to the elution test is a 50 mM phosphoric acid buffer solution (pH6.8, 37° C.) in order to neutralize the elution condition for the specific component A.

elution ratio ([1]; double-wavelength absorbance measurement method (234 nm and 287 nm)): around 100% | elution ratio ([1]; single-wavelength absorbance measurement method (234 nm)): 140% | time for residual concentration to decrease to half the initial concentration [2]: ≤ 40 min | residual concentration of the specific component A ([2]; within 40 minutes): 0.05 mg/mL
Compound: COCCCOc1ccnc(C[S+]([O-])c2nc3ccccc3[n-]2)c1C.[Na+] (stereo not shown) [specific component A, sodium rabepranazole]
